This is an account of results in US8946215B2, “Hydroxy-substituted imidazo[1,2-a]pyridinecarboxamides and their use” (Bayer Pharma Aktiengesellschaft, priority 2012, dated 2015).

Structures can show the parent of a compound that is named as a salt.

This assay has as its target T1, recombinant guanylate cyclase reporter cell line (Rattus norvegicus, UniProt P19686+P20595).
T1 construct: expressed in transfected cells
T1 sequence (P20595 1-619): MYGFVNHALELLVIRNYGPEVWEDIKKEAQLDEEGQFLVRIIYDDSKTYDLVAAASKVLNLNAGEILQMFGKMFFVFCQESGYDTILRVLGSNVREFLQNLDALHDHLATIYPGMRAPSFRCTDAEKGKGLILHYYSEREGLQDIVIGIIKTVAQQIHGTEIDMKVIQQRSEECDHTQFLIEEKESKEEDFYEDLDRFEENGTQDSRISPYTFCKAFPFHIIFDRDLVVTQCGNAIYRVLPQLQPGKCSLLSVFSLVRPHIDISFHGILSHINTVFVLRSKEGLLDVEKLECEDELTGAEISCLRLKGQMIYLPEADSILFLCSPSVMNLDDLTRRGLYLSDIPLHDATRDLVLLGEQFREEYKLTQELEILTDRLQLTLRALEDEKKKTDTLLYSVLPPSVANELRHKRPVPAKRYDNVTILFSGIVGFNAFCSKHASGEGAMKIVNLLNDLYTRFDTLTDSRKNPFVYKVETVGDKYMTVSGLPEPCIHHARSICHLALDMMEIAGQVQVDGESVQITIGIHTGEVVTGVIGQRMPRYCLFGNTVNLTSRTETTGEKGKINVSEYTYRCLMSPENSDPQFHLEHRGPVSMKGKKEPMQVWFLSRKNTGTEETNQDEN
T1 sequence (P19686 1-690): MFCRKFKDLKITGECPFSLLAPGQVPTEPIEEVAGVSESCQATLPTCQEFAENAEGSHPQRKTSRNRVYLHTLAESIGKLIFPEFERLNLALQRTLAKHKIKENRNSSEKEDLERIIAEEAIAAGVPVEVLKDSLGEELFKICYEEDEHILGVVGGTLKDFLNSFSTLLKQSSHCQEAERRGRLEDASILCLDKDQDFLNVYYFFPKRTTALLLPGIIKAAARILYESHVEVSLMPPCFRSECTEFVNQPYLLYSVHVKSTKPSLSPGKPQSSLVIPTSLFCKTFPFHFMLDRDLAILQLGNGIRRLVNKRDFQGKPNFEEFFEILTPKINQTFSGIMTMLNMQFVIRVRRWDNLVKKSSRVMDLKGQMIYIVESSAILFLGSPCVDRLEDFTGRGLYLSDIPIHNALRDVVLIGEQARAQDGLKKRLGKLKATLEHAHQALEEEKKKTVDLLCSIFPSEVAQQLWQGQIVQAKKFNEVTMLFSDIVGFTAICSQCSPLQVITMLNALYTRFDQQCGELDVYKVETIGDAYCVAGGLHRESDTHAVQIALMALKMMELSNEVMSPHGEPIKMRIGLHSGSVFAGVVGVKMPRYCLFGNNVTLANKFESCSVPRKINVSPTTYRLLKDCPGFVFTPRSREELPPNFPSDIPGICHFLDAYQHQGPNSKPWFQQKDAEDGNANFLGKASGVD
The assay is described as follows: Action on recombinant guanylate cyclase reporter cell line. The note with it: in some cases mean values obtained from individual determinations. In kind it is cell-based. The method, then:
B-2. Action on Recombinant Guanylate Cyclase Reporter Cell Line
The cellular action of the compounds according to the invention is determined on a recombinant guanylate cyclase reporter cell line, as described in F. Wunder et al., Anal. Biochem. 339, 104-112 (2005).
Representative values (MEC=minimal effective concentration) for the compounds according to the invention are shown in the following table (in some cases as mean values obtained from individual determinations): […]
In the case of `CCCOCC(CO)NC(=O)c1c(C)nc2c(OCc3c(F)cccc3F)cccn12` (racemic) [Example 162, rac-8-[(2,6-Difluorobenzyl)oxy]-N-(1-hydroxy-3-propoxypropan-2-yl)-2-methylimidazo[1,2-a]-pyridine-3-carboxamide], the “MEC (minimal effective concentration)” value turned out to be 0.3 µM.

As for `Cc1nc2c(OCc3c(F)cccc3F)cccn2c1C(=O)NC(CO)COCC(C)C` (racemic) [Example 163, rac-8-[(2,6-Difluorobenzyl)oxy]-N-(1-hydroxy-3-isobutoxypropan-2-yl)-2-methylimidazo[1,2-a]-pyridine-3-carboxamide], the “MEC (minimal effective concentration)” value was 1.0 µM.

`Cc1cc(OCCC(C(F)(F)F)C(F)(F)F)c2nc(C)c(C(=O)NC(CCCC(F)(F)F)C(C)(C)O)n2c1` (racemic) [Example 170, rac-2,6-Dimethyl-N-(7,7,7-trifluoro-2-hydroxy-2-methylheptan-3-yl)-8-[4,4,4-trifluoro-3-(trifluoromethyl)butoxy]imidazo[1,2-a]pyridine-3-carboxamide]: the “MEC (minimal effective concentration)” value was found to be 3.0 µM.

As to `CCC(O)CNC(=O)c1c(C)nc2c(OCCC(C(F)(F)F)C(F)(F)F)cc(C)cn12` (racemic) [Example 174, rac-N-(2-hydroxybutyl)-2,6-dimethyl-8-[4,4,4-trifluoro-3-(trifluoromethyl)butoxy]imidazo[1,2-a]pyridine-3-carboxamide], the “MEC (minimal effective concentration)” value came to 3.0 µM.

For the compound `Cc1cc(OCCC(C(F)(F)F)C(F)(F)F)c2nc(C)c(C(=O)NCC(O)c3ccc(Cl)cc3)n2c1` (racemic) [Example 175, rac-N-[2-(4-chlorophenyl)-2-hydroxyethyl]-2,6-dimethyl-8-[4,4,4-trifluoro-3-(trifluoromethyl)butoxy]imidazo[1,2-a]pyridine-3-carboxamide], the “MEC (minimal effective concentration)” value worked out at 3.0 µM.

In the case of `Cc1cc(OCC2CC(F)(F)C2)c2nc(C)c(C(=O)NC(CCCC(F)(F)F)C(C)(C)O)n2c1` (racemic) [Example 176, rac-8-[(3,3-Difluorocyclobutyl)methoxy]-2,6-dimethyl-N-(7,7,7-trifluoro-2-hydroxy-2-methylheptan-3-yl)imidazo[1,2-a]pyridine-3-carboxamide], the “MEC (minimal effective concentration)” value was 3.0 µM.

As for `Cc1cc(OCc2ncccc2F)c2nc(C)c(C(=O)NC(CCCC(F)(F)F)C(C)(C)O)n2c1` (racemic) [Example 178, rac-8-[(3-fluoropyridin-2-yl)methoxy]-2,6-dimethyl-N-(7,7,7-trifluoro-2-hydroxy-2-methylheptan-3-yl)imidazo[1,2-a]pyridine-3-carboxamide trifluoroacetate], the “MEC (minimal effective concentration)” value was 1 µM.

Consider `Cc1nc2c(OCc3ncccc3F)cccn2c1C(=O)NC(CCCC(F)(F)F)C(C)(C)O` (racemic) [Example 179, rac-8-[(3-fluoropyridin-2-yl)methoxy]-2-methyl-N-(7,7,7-trifluoro-2-hydroxy-2-methylheptan-3-yl)imidazo(1,2-a]pyridine-3-carboxamide], for which the “MEC (minimal effective concentration)” value was 1 µM.

Turning to `Cc1nc2c(OCc3ncccc3F)cccn2c1C(=O)NC(CC(F)(F)F)C(C)(C)O` (racemic) [Example 180, rac-8-[(3-Fluoropyridin-2-yl)methoxy]-2-methyl-N-(1,1,1-trifluoro-4-hydroxy-4-methylpentan-3-yl)imidazo[1,2-a]pyridine-3-carboxamide], the “MEC (minimal effective concentration)” value worked out at 1 µM.

For the compound `Cc1cc(OCc2ncccc2F)c2nc(C)c(C(=O)NC(CC(F)(F)F)C(C)(C)O)n2c1` (racemic) [Example 184, rac-8-[(3-fluoropyridin-2-yl)methoxy]-2,6-dimethyl-N-(1,1,1-trifluoro-4-hydroxy-4-methylpentan-3-yl)imidazo[1,2-a]pyridine-3-carboxamide (racemate)], the “MEC (minimal effective concentration)” value was found to be 1 µM.

For `Cc1cc(OCc2ncccc2F)c2nc(C)c(C(=O)NC(CCC(F)(F)C(F)(F)F)C(C)(C)O)n2c1` (racemic) [Example 186, rac-8-[(3-fluoropyridin-2-yl)methoxy]-2,6-dimethyl-N-(6,6,7,7,7-pentafluoro-2-hydroxy-2-methylheptan-3-yl)imidazo[1,2-a]pyridine-3-carboxamide (racemate)], the “MEC (minimal effective concentration)” value worked out at 1 µM.

Turning to `Cc1cc(OCc2ncccc2F)c2nc(C)c(C(=O)NC(CCCC(F)(F)C(F)(F)F)C(C)(C)O)n2c1` (racemic) [Example 190, rac-8-[(3-fluoropyridin-2-yl)methoxy]-2,6-dimethyl-N-(7,7,8,8,8-pentafluor-2-hydroxy-2-methyloctan-3-yl)imidazo[1,2-a]pyridine-3-carboxamide (racemate)], the “MEC (minimal effective concentration)” value was determined as 1 µM.

For `Cc1cc(OCc2ncccc2F)c2nc(C)c(C(=O)NCC(O)C(F)(F)F)n2c1` (racemic) [Example 197, rac-8-[(3-fluoropyridin-2-yl)methoxy]-2,6-dimethyl-N-(3,3,3-trifluoro-2-hydroxypropyl)imidazo[1,2-a]pyridine-3-carboxamide], the “MEC (minimal effective concentration)” value came out at 3 µM.

For the compound `Cc1nc2c(OCC3CCCCC3)cccn2c1C(=O)N[C@@H]1CCC[C@@H]1O` (relative stereo) [Example 81, 8-(cyclohexylmethoxy)-N-[cis-2-hydroxycyclopentyl]-2-methylimidazo[1,2-a]-pyridine-3-carboxamide], the “MEC (minimal effective concentration)” value was found to be 0.65 µM.

For the compound `Cc1nc2c(OCc3c(F)cccc3F)cccn2c1C(=O)NC(CO)CCC(O)C(F)(F)F` (single isomer, unassigned) [Example 138, 8-[(2,6-Difluorobenzyl)oxy]-2-methyl-N-(6,6,6-trifluoro-1,5-dihydroxyhexan-2-yl)imidazo[1,2-a]-pyridine-3-carboxamide], the “MEC (minimal effective concentration)” value amounted to 0.1 µM.

Regarding `CCCCC(NC(=O)c1c(C)nc2c(OCCC(C)C)cc(C)cn12)C(C)(C)O` (single isomer, unassigned) [Example 167, ent-N-(2-Hydroxy-2-methylheptan-3-yl)-2,6-dimethyl-8-(3-methylbutoxy)imidazo[1,2-a]pyridine-3-carboxamide], the “MEC (minimal effective concentration)” value is 2.0 µM.

Turning to `Cc1cc(OCCC(C)C)c2nc(C)c(C(=O)NC(CCCC(F)(F)F)C(C)(C)O)n2c1` (single isomer, unassigned; ent-2) [Example 168, ent-2,6-Dimethyl-8-(3-methylbutoxy)-N-(7,7,7-trifluoro-2-hydroxy-2-methylheptan-3-yl)imidazo-[1,2-a]pyridine-3-carboxamide], the “MEC (minimal effective concentration)” value came to 3.0 µM.

Regarding `Cc1cc(OCc2c(F)ccc(F)c2F)c2nc(C)c(C(=O)NC(CCC(F)(F)C(F)(F)F)C(C)(C)O)n2c1` (single isomer, unassigned; ent-2) [Example 198, ent-2,6-dimethyl-N-(6,6,7,7,7-pentafluoro-2-hydroxy-2-methylheptan-3-yl)-8-[(2,3,6-trifluorobenzyl)oxy]imidazo[1,2-a]pyridine-3-carboxamide], the “MEC (minimal effective concentration)” value amounted to 0.03 µM.

With `Cc1nc2c(OCc3c(F)cccc3F)cccn2c1C(=O)NC(CO)c1ccc(F)cc1` (single isomer, unassigned; ent-8) [Example 107, ent-8-[(2,6-Difluorobenzyl)oxy]-N-[1-(4-fluorophenyl)-2-hydroxyethyl]-2-methylimidazo[1,2-a]-pyridine-3-carboxamide], the “MEC (minimal effective concentration)” value stood at 0.1 µM.

As to `Cc1nc2c(OCc3c(F)cccc3F)cccn2c1C(=O)NCC(O)C(F)(F)F` (single isomer, unassigned; ent-8) [Example 109, ent-8-[(2,6-Difluorobenzyl)oxy]-2-methyl-N-(3,3,3-trifluoro-2-hydroxypropyl)imidazo[1,2-a]-pyridine-3-carboxamide], the “MEC (minimal effective concentration)” value came out at 0.1 µM.
